Key:
Human DYRK1A = biological target: T1, Human DYRK1A (Homo sapiens, UniProt Q13627); assay: DYRK1A Kinase TR-FRET (IMAP-Tb) Assay; type: biochemical; details: TR-FRET; ATP 70 μM; 37° C. for 60 minutes; averages of multiple runs; read-out: Enzyme IC50 DYRK1A
T1 construct: purchased Invitrogen PV3997

[1] = test system: SW620 human colon cancer cells; assay: SW620 Cell Viability Assay (CellTiter-Glo); type: cell-based; details: SW-620, 96 h, 4 days incubation, read-out: Cellular EC50 SW620
Procedure: 1. Cell Plate Preparation: SW620 human colon cancer cells (known to express DYRK1B), obtained from ATCC, were seeded into 96-well plates at […] in 50 μL of media. • Harvested the required number of cells (counts & viability determined by Guava Viacount). • Centrifuge cells to pellet and removed supernant. • Resuspended in growth media (50 μL/well) & pipetted thoroughly to break up clumps. • Setup for ˜100 wells/plate, therefore, VT=5 mL/plate @ 1.2×10^5 cells/mL. 1A. Some cells (S-) were allowed to attach for 24 hrs, serum starved for 48 hrs, and then followed with treatments of test compound.
Test Compound solution was prepared in regular corresponding media supplemented with serum
2. Test Compound Preparation: Test compounds were solubilized in either DMSO or media and prepared at various stock concentrations. • All compounds were incubated at 37° C. for 30 minutes and vortexed. • (5 mM stocks of test compound were prepared for non-soluble drugs)
3. Test Compound Plate Preparation:
• The 10 mM test compound stock was diluted to a concentration of 100× the final Cmax concentration. • Then the test compound stock is diluted 50-fold in media and/or second test compound for a final Cmax concentration in the test compound plate. • The Cmax in the test compound plate (2% DMSO) is 2-fold higher than the final Cmax in the cell plate (60 uL titrations were 1:3). 4. Viability Assay: This assay was performed as follows: • Transfer 50 μL of test compound solution per well from the test compound plate onto the cell plate prepared in Step #1. • Mix the plate with treated cells by pipetting up and down three times with 200 μL multi-channel pipet. • Incubate the cells in 5% CO2 incubator @ 37° C. for 4 days. • Run the CellTiter-Glo™ Luminescent Cell Viability Assay. The results of this assay, given as EC50 values, indicate the concentration of test compound that inhibits tumor cell proliferation by 50%.

Human DYRK1B = biological target: T2, Human DYRK1B (Homo sapiens, UniProt Q9Y463); assay: DYRK1B Kinase TR-FRET (IMAP-Tb) Assay; type: biochemical; details: TR-FRET; ATP 70 μM; 37° C. for 60 minutes; averages of multiple runs; read-out: Enzyme IC50 DYRK1B
T2 construct: purchased Invitrogen PR8350B (former PV4649)
T2 sequence (Q9Y463 whole entry): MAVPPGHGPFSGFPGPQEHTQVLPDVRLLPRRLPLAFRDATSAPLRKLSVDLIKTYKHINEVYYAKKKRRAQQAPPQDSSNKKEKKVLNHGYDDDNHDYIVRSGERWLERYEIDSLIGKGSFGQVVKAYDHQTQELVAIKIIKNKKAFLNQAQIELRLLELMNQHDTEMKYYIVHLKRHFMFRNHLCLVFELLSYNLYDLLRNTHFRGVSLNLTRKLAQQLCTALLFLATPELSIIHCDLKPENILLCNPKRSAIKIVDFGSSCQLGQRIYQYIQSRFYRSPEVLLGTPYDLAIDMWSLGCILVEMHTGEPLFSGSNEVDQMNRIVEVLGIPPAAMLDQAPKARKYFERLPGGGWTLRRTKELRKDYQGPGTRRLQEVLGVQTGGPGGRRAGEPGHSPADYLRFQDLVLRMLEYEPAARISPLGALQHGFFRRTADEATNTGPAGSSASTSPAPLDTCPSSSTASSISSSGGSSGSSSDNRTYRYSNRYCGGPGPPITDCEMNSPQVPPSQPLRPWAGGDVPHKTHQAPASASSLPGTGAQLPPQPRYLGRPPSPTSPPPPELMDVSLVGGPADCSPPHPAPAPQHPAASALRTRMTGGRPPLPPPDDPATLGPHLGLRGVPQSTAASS

For `COCCOc1cc2cc(C(=O)Nc3cc(C(=O)N[C@@H](CCN)c4ccccc4)ccc3Cl)c(=O)[nH]c2cc1OC` [Example 64, (S)-N-(5-(3-Amino-1-phenylpropylcarbamoyl)-2-chlorophenyl)-7-methoxy-6-(2-methoxyethoxy)-2-oxo-1,2-dihydroquinoline-3-carboxamide], the IC50 (Human DYRK1A) was 186 nM, the EC50 [1] was 9200 nM and the IC50 (Human DYRK1B) was 253 nM.
